For assay [1], the system named is Micrococcus luteus. Nature of the assay: in vivo activity, M.I.C. on M. luteus (VM1 derivatives alone, without VS1). The class given is cell-based. On the set-up: key: (+) indicates multiplication of bacteria. The settings on record: M. luteus in LBroth, 18 h at 37° C. with shaking. Here is the method:
The synthesized derivatives of the present invention have been tested for antibacterial activity (in solid and liquid medium), ribosome binding affinity and synergistic activity with virginiamycin S. The tests for biological activity were carried out both in vivo and in vitro. The in vivo tests were carried out using Micrococcus luteus as the test organism with the VM1 derivatives alone (without VS1). Minimum inhibitory concentrations (MIC values) were determined on agar broth plates by standard microbiological procedures, with a range of concentrations of the VM derivatives applied to the plates. The in vitro tests of the VM derivatives were performed together with VS1, and took advantage of the unique fluorescence (F) inherent in VS1. The results are summarized in the following tables, wherein the activities are compared to virginiamycin (VM1). | M. luteus in LBroth, 18 h at 37° C. with shaking. | M. luteus in LBroth, 18 h at 37° C. with shaking.

Assay [2] concerns ribosomes. Nature of the assay: in vitro activity: binding to free ribosomes, VS1 fluorescence with erythromycin displacement. The arrangement: key to kobs (symbol): (*) too small to be measured. t/2 is very large. The settings on record: together with VS1, fluorescence. The method, then:
The in vivo tests were carried out using Micrococcus luteus as the test organism with the VM1 derivatives alone (without VS1). Minimum inhibitory concentrations (MIC values) were determined on agar broth plates by standard microbiological procedures, with a range of concentrations of the VM derivatives applied to the plates. The in vitro tests of the VM derivatives were performed together with VS1, and took advantage of the unique fluorescence (F) inherent in VS1. […] Using spectrofluorometry, an increase in fluorescence can be measured when ribosomes are added to a VS1 solution. Erythromycin is known to bind at the same position on the ribosome (50-S subunit) as VS1, and when it is added to the VS1 /ribosomal mixture, a decrease in fluorescence is seen. If VM1 is added to the VS1 /ribosomal/erythromycin mixture, an increase in fluorescence can be measured. Presumably, a conformational change of the ribosomes occurs upon binding of VM1, which allows VS1 to bind preferentially and releases erythromycin from the ribosomes. The VM1 derivatives would also display this type of behavior if they bind to the ribosomes.

The mark [3] stands for this setting: in vitro Activity of VM1-Ester Derivatives.
[4] abbreviates: in vitro Activity of VM1-Carboxylic Acid Derivatives.

In the case of `CC1=C\[C@@H](O)CC(=O)Cc2nc(co2)C(=O)N2CC[C@@H](SCCC(=O)OCC(Cl)(Cl)Cl)[C@@H]2C(=O)O[C@H](C(C)C)[C@H](C)/C=C/C(=O)NC\C=C\1` [Ester b R,S], the “in vivo Activity of VM1-Ester Derivatives, M.I.C. on M. luteus (multiplication of bacteria)” value (from here on “in vivo Activity”) in assay [1] (Concentration 0.0625 μg/mL), in assay [1] (Concentration 0.125 μg/mL), in assay [1] (Concentration 0.25 μg/mL) and in assay [1] (Concentration 0.5 μg/mL) was “+” in each case. Further, in assay [2] (setting [3]), the kobs was found to be 0.021 s⁻¹. The same compound yielded a t/2 in assay [2] (setting [3]) of 32.7 s.

For `CC1=C\[C@@H](O)CC(=O)Cc2nc(co2)C(=O)N2CC[C@H](SCCCCC(=O)O)[C@H]2C(=O)O[C@H](C(C)C)[C@H](C)/C=C/C(=O)NC\C=C\1` [Carboxylic c S,R], the “in vivo Acitivity of VM1-Carboxylic Derivatives, M.I.C. on M. luteus (multiplication of bacteria)” value (shortened to “in vivo Acitivity”) in assay [1] (Concentration 0.0625 μg/mL), in assay [1] (Concentration 0.125 μg/mL) and in assay [1] (Concentration 0.25 μg/mL) was “+” throughout. In assay [2] (setting [4]), this compound gave a kobs of 0.015 s⁻¹. Besides, the t/2 in assay [2] (setting [4]) worked out at 46 s.

`CC1=C\[C@@H](O)CC(=O)Cc2nc(co2)C(=O)N2CC[C@H](SCC(=O)O)[C@H]2C(=O)O[C@H](C(C)C)[C@H](C)/C=C/C(=O)NC\C=C\1` [Carboxylic a S,R]: the “in vivo Acitivity” value in assay [1] (Concentration 0.0625 μg/mL), in assay [1] (Concentration 0.125 μg/mL), in assay [1] (Concentration 0.25 μg/mL), in assay [1] (Concentration 0.5 μg/mL), in assay [1] (Concentration 1 μg/mL) and in assay [1] (Concentration 2 μg/mL) was “+” each time. The “in vivo Acitivity” value in assay [1] (Concentration 4 μg/mL), in assay [1] (Concentration 8 μg/mL), in assay [1] (Concentration 16 μg/mL), in assay [1] (Concentration 32 μg/mL) and in assay [1] (Concentration 128 μg/mL) was “+” each time. Also, the “kobs (symbol)” value in assay [2] (setting [4]) was “*”.

In the case of `CC1=C\[C@@H](O)CC(=O)Cc2nc(co2)C(=O)N2CC[C@H](SCCC(=O)O)[C@H]2C(=O)O[C@H](C(C)C)[C@H](C)/C=C/C(=O)NC\C=C\1` [Carboxylic b S,R], the “in vivo Acitivity” value in assay [1] (Concentration 0.0625 μg/mL), in assay [1] (Concentration 0.125 μg/mL), in assay [1] (Concentration 0.25 μg/mL), in assay [1] (Concentration 0.5 μg/mL), in assay [1] (Concentration 1 μg/mL) and in assay [1] (Concentration 2 μg/mL) was “+” throughout. Also, the “in vivo Acitivity” value in assay [1] (Concentration 4 μg/mL), in assay [1] (Concentration 8 μg/mL), in assay [1] (Concentration 16 μg/mL), in assay [1] (Concentration 32 μg/mL) and in assay [1] (Concentration 128 μg/mL) was “+” each time. Further, the “kobs (symbol)” value in assay [2] (setting [4]) is listed as “*”.

Regarding `CC1=C\[C@@H](O)CC(=O)Cc2nc(co2)C(=O)N2CC[C@H](SCCC(=O)OCC(Cl)(Cl)Cl)[C@H]2C(=O)O[C@H](C(C)C)[C@H](C)/C=C/C(=O)NC\C=C\1` [Ester b S,R], the “in vivo Activity” value in assay [1] (Concentration 0.0625 μg/mL), in assay [1] (Concentration 0.125 μg/mL), in assay [1] (Concentration 0.25 μg/mL), in assay [1] (Concentration 0.5 μg/mL), in assay [1] (Concentration 1 μg/mL) and in assay [1] (Concentration 2 μg/mL) was “+” each time. The “in vivo Activity” value in assay [1] (Concentration 4 μg/mL) and in assay [1] (Concentration 8 μg/mL) was “+” throughout. Moreover, the kobs in assay [2] (setting [3]) came to 0.0009 s⁻¹. This compound also gave a t/2 in assay [2] (setting [3]) of 721 s.

With `CC1=C\[C@@H](O)CC(=O)Cc2nc(co2)C(=O)N2CC[C@@H](SCC(=O)O)[C@@H]2C(=O)O[C@H](C(C)C)[C@H](C)/C=C/C(=O)NC\C=C\1` [Carboxylic a R,S], the “in vivo Acitivity” value in assay [1] (Concentration 0.0625 μg/mL), in assay [1] (Concentration 0.125 μg/mL), in assay [1] (Concentration 0.25 μg/mL), in assay [1] (Concentration 0.5 μg/mL), in assay [1] (Concentration 1 μg/mL) and in assay [1] (Concentration 2 μg/mL) was “+” throughout. Further, the “in vivo Acitivity” value in assay [1] (Concentration 4 μg/mL), in assay [1] (Concentration 8 μg/mL) and in assay [1] (Concentration 16 μg/mL) was “+” in each case. Besides, the kobs entry in assay [2] (setting [4]) is “.00047 s⁻¹”. In addition, in assay [2] (setting [4]), the t/2 stood at 1487 s.

In the case of `CC1=C\[C@@H](O)CC(=O)Cc2nc(co2)C(=O)N2CC[C@@H](SCCCCC(=O)O)[C@@H]2C(=O)O[C@H](C(C)C)[C@H](C)/C=C/C(=O)NC\C=C\1` [Carboxylic c R,S], the “in vivo Acitivity” value in assay [1] (Concentration 0.0625 μg/mL), in assay [1] (Concentration 0.125 μg/mL) and in assay [1] (Concentration 0.25 μg/mL) was “+” each time. The compound also showed a kobs in assay [2] (setting [4]) of 0.019 s⁻¹. This compound also yielded a t/2 in assay [2] (setting [4]) of 38.7 s.

Consider `CC1=C\[C@@H](O)CC(=O)Cc2nc(co2)C(=O)N2CC[C@@H](SCCCCC(=O)OCC(Cl)(Cl)Cl)[C@@H]2C(=O)O[C@H](C(C)C)[C@H](C)/C=C/C(=O)NC\C=C\1` [Ester c R,S], for which the “in vivo Activity” value in assay [1] (Concentration 0.0625 μg/mL), in assay [1] (Concentration 0.125 μg/mL), in assay [1] (Concentration 0.25 μg/mL), in assay [1] (Concentration 0.5 μg/mL), in assay [1] (Concentration 1 μg/mL) and in assay [1] (Concentration 2 μg/mL) was “+” in each case. Further, the “in vivo Activity” value in assay [1] (Concentration 4 μg/mL) is reported as “+”. For the same compound, in assay [2] (setting [3]), the kobs was determined as 0.020 s⁻¹. For the same compound, the t/2 in assay [2] (setting [3]) was found to be 34.1 s.

As to `CC1=C\[C@@H](O)CC(=O)Cc2nc(co2)C(=O)N2CC[C@@H](SCCC(=O)O)[C@@H]2C(=O)O[C@H](C(C)C)[C@H](C)/C=C/C(=O)NC\C=C\1` [Carboxylic b R,S], the “in vivo Acitivity” value in assay [1] (Concentration 0.0625 μg/mL), in assay [1] (Concentration 0.125 μg/mL), in assay [1] (Concentration 0.25 μg/mL), in assay [1] (Concentration 0.5 μg/mL), in assay [1] (Concentration 1 μg/mL) and in assay [1] (Concentration 2 μg/mL) was “+” in each case. The “in vivo Acitivity” value in assay [1] (Concentration 4 μg/mL), in assay [1] (Concentration 8 μg/mL), in assay [1] (Concentration 16 μg/mL) and in assay [1] (Concentration 32 μg/mL) was “+” each time. In assay [2] (setting [4]), this compound came in with a kobs of 0.003 s⁻¹. Moreover, in assay [2] (setting [4]), the t/2 came to 229 s.
